Source: US20250340661A1, “ANTI CD40 ANTIBODY, ANTIGEN BINDING FRAGMENT AND MEDICAL USE THEREOF” (Jiangsu Hengrui Pharmaceuticals Co., Ltd., priority 2021, published 2025)

Legend:
CD40 [1] = biological target: T1, CD40 (Homo sapiens, UniProt P25942); test: B cell activation assay system (human PBMCs, CD40L stimulation); type: cell-based; set-up: endogenous in cells; host or cells: human PBMCs (CD19+ B cells read out); details: CD40L-his + anti-His overnight
Experimental: CD40 is highly expressed in B cells, and CD40L, upon binding to CD40, can induce B cell activation and up-regulate the expression of a series of activation markers. CD40 antagonistic antibodies block the binding of CD40L to CD40, thereby eliminating the immune activation process of B cells.
Human PBMCs were plated at 2E5/well, 50 μL/well into a 96-well cell culture plate (the medium was RPMI-1640, 10% FBS, 1% penicillin-streptomycin). Serially diluted test antibodies were added at 50 μL/well, and the cells were co-incubated at 37° C. in 5% CO2 for 0.5 h. CD40L-his and an anti-His antibody were added to each well for overnight stimulation. The following day, the plate was centrifuged, the supernatant was removed, and the cells were washed twice with FACS buffer and stained at room temperature for 15 min with 100 μL of Fixable viability dye EF780 (Invitrogen, 65086514) diluted at 1:1000. The cells were washed twice and then blocked at room temperature for 10 min with 100 μL of human Fc blocker (BD, 564220) diluted at 1:200. After centrifugation, the cells were incubated at 4° C. for 0.5 h with flow cytometry antibodies (PerCP/Cyanine5.5 anti-human CD19 (Biolegend, 302230), and APC anti-human CD69 (Biolegend, 310910)) diluted at 1:200. After centrifugation, the supernatant was removed, the cells were washed twice with FACS buffer and then resuspended in 200 μL of PBS, and the fluorescence intensity on the cell surface was measured by flow cytometry (BD FACS Celesta).
With reference to the method in Example 10, the inhibitory activity of the anti-CD40 antibodies 2F12-L4H2-AAYTE and 9E6-L4H2-AAYTE, which carry the AAYTE mutation in the Fc, in the B cell activation assay system was measured.
Target sequence in this assay (P25942 21-277): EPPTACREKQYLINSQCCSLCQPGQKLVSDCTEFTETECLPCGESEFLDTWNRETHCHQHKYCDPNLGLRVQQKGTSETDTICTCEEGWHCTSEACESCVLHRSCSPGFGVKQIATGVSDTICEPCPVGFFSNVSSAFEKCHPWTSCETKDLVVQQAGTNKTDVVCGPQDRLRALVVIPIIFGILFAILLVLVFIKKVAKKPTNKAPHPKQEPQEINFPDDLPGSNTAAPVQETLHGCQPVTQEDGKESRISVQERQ

CD40 [2] = biological target: T1, CD40; test: HEK-Blue CD40L reporter gene cell activity of humanized anti-CD40 antibodies; type: cell-based; set-up: host or cells: HEK-Blue CD40L cells; details: read-out: IC50 inhibition of CD40 reporter gene cell activity
Experimental: HEK-Blue CD40L cells were purchased from Invivogen (Cat. #hkb-cd40). The cells were stably transfected with the human CD40 gene and the NF-kB-mediated SEAP genome. The activation level of the CD40 signaling pathway can be characterized by measuring the amount of secreted SEAP in the supernatant using QUANTI-Blue, the substrate of SEAP. In the assays, the inhibitory effects of the CD40 antagonistic antibodies on the CD40L-induced HEK-Blue CD40L cell activation were measured, and the in vitro cell activity of the CD40 antagonistic antibodies was assessed based on IC50. HEK-Blue CD40L cells were cultured in a DMEM medium containing 10% FBS, 100 μg/mL Normocin, 100 μg/mL Zeocin and 30 μg/mL Blasticidin, with 2-3 passages a week. HEK-Blue CD40L cells were plated at 5E4/well into a 96-well cell culture plate (the medium was DMEM, 10% FBS, 100 μg/mL Normocin) and incubated overnight. […] CD40L-his (R&D, 2706-CL-025) and anti-His antibody (R&D, MAB050-500) were added, and the plate was incubated overnight. After cell centrifugation, 20 μL of the cell supernatant was transferred to a new 96-well white plate, and 180 μL of QUANTI-Blue substrate solution was added. The plate was incubated in the dark for 15 min. The absorbance at 620 nm was measured with an Envision microplate reader, and IC50 values were calculated and used to assess the in vitro cell activity of the CD40 antagonistic antibodies.
Target sequence in this assay (P25942 21-277): as above

CD40 [3] = biological target: T1, CD40; test: SPR (Biacore) affinity for human CD40; type: binding; set-up: h-CD40-his; Glu21-Arg193; P25942-1; His; purchased Acrobiosystems Inc. CD0-H5228; details: Human CD40 as mobile phase, antibody captured
Experimental: The test antibody was affinity-captured on an anti-human Fc chip, and a series of concentrations of His-tagged human or cynomolgus monkey CD40 antigen were allowed to flow over the chip surface. Reaction signals were detected in real time using a Biacore instrument, and thus binding and dissociation curves were obtained. The buffer used in the experiment was HBS-EP+10× buffer solution (Cat. #BR-1006-69, GE) diluted to 1× (pH 7.4) with D. I. Water. Fitting was performed on the data obtained from the experiment using a (1:1) Binding model to obtain affinity values. 9E6-L4H2 and 2F12-L4H2 have similar binding constants for human CD40 to CFZ533, 9E6-L4H2 has a stronger binding affinity for cynomolgus monkey CD40, and 2F12-L4H2 has a slightly weak binding affinity for cynomolgus monkey CD40.
Target sequence in this assay (P25942 21-193): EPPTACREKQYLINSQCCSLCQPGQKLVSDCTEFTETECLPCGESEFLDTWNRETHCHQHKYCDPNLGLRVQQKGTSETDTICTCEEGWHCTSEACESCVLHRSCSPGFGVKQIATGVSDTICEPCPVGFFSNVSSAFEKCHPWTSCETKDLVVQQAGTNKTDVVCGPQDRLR

[4] = system: human CD40 transgenic mice; test: Mouse skin graft rejection model; type: in vivo
From the text: Male Balb/c mice, 6 weeks old, were purchased from the Laboratory Animal Management Department, Shanghai Institute of Planned Parenthood Research. Housing environment: SPF; certification number: 20180006023393.
On day −2 of the experiment, the mice were intraperitoneally injected with tacrolimus FK506 or CD40 antagonistic antibodies. On day 0 of the experiment, donor Balb/c mice and C57BL6/J mice were anesthetized with 4% chloral hydrate. The tails of the donor mice were removed, and full circles of skin, 1 cm in length, were isolated from the tails. The hair on the acceptor mice's back was removed, and an incision was made along the skin layer. An equal area of skin was removed while preserving the back fat and connective tissue. The donor skin was placed on the acceptor mice's incision site, and the incision was closed with glue. The mice were then placed back in cages to recover.
The mice were dosed according to the administration regimens in Table 17. After 7 days of recovery, the mouse skin survival was observed daily and rejection scores were recorded.

Question: With “CFZ533: anti-CD40 antagonistic antibody (iscalimab), positive control; variable regions from U.S. Pat. No. 8,277,810B [reference compound]” as the substance, how does the “CD19+CD69+ % Maximum inhibition rate” value (CD40 [1]) read?
Answer: Its value is 95%.

Question: What about the “CD19+CD69+ MFI Maximum inhibition rate” value (CD40 [1]) of the same substance?
Answer: The value was 110%.

Question: And the IC50 (CD40 [1]; read-out: CD19+CD69+ % IC50)?
Answer: Its IC50 is 0.14 nM.

Question: And the IC50 (CD40 [1]; read-out: CD19+CD69+ MFI IC50)?
Answer: The IC50 was 0.07 nM.

Question: And the IC50 (CD40 [2]; Assay 1)?
Answer: Its IC50 is 0.36 nM.

Question: And the IC50 (CD40 [2]; Assay 2)?
Answer: Its IC50 is 0.35 nM.

Question: What about the Ka (CD40 [3]) of the same substance?
Answer: Its Ka is 688000 M⁻¹ s⁻¹.

Question: And the Skin graft score ([4]; 8 days, 3 mpk, scale 3 (no rejection) to 0)?
Answer: The Skin graft score was 2.7.

Question: What about the Skin graft score ([4]; 8 days, 10 mpk, scale 3 to 0) of the same substance?
Answer: Its Skin graft score is 2.9.

Question: What about the Skin graft score ([4]; 10 days, 3 mpk, scale 3 to 0) of the same substance?
Answer: Its Skin graft score is 2.1.

Question: And the Skin graft score ([4]; 10 days, 10 mpk, scale 3 to 0)?
Answer: The Skin graft score was 2.1.

Question: And the Skin graft score ([4]; 15 days, 3 mpk, scale 3 to 0)?
Answer: Its Skin graft score is 0.

Question: And the Skin graft score ([4]; 15 days, 10 mpk, scale 3 to 0)?
Answer: The Skin graft score was 0.

Question: What about the Skin graft score ([4]; 20 days, 3 mpk, scale 3 to 0) of the same substance?
Answer: Its Skin graft score is 0.

Question: What about the Skin graft score ([4]; 20 days, 10 mpk, scale 3 to 0) of the same substance?
Answer: Its Skin graft score is 0.

Question: And the “Skin graft survival rate (%)” value ([4]; Day 15, 3 mpk ip)?
Answer: Its value is 0%.

Question: And the “Skin graft survival rate (%)” value ([4]; Day 15, 10 mpk ip)?
Answer: The value was 0%.
